Laboratory results as given in article PMC8217266 (Clinical Pharmacology and Therapeutics, 2021).

Assays:
BCRP = biological target: T1, BCRP (Homo sapiens, UniProt Q9UNQ0); test: biochemical
T1 sequence (Q9UNQ0 1-655): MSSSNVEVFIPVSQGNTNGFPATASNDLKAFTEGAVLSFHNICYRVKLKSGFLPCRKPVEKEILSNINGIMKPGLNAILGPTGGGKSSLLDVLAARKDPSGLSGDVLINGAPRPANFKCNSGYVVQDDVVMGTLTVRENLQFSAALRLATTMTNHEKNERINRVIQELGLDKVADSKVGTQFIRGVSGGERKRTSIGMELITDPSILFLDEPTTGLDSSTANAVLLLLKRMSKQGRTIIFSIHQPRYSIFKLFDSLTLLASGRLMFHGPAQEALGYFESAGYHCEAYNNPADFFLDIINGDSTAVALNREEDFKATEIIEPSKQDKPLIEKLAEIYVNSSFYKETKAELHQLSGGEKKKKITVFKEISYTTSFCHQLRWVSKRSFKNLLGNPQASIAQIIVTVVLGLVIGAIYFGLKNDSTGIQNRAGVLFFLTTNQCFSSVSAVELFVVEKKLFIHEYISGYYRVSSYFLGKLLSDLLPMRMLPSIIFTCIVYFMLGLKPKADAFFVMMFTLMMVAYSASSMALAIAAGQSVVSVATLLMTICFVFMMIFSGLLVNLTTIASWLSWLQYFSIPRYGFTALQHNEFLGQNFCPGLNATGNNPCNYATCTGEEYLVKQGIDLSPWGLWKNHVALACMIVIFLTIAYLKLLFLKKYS

human OAT1 = biological target: T2, human OAT1 (Homo sapiens, UniProt Q4U2R8); test: cell-based
T2 sequence (Q4U2R8 1-563): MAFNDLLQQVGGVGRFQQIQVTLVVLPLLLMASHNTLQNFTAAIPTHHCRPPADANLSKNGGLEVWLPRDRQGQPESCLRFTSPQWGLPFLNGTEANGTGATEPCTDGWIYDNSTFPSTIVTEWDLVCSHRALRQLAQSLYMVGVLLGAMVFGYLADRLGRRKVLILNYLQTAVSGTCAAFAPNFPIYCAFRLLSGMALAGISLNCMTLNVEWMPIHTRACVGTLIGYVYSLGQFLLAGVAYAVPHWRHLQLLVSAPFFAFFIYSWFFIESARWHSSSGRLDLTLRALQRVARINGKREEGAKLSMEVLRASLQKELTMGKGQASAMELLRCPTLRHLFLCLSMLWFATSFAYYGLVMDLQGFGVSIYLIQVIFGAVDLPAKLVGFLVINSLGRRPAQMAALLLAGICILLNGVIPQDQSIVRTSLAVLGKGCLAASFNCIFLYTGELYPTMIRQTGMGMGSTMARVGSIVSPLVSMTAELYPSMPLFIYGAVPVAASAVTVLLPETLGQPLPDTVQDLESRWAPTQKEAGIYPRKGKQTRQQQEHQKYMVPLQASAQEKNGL

human MATE2 = human MATE2 (Homo sapiens, UniProt Q86VL8); test: cell-based
Sequence of human MATE2 (Q86VL8 1-566 isoform Q86VL8-3): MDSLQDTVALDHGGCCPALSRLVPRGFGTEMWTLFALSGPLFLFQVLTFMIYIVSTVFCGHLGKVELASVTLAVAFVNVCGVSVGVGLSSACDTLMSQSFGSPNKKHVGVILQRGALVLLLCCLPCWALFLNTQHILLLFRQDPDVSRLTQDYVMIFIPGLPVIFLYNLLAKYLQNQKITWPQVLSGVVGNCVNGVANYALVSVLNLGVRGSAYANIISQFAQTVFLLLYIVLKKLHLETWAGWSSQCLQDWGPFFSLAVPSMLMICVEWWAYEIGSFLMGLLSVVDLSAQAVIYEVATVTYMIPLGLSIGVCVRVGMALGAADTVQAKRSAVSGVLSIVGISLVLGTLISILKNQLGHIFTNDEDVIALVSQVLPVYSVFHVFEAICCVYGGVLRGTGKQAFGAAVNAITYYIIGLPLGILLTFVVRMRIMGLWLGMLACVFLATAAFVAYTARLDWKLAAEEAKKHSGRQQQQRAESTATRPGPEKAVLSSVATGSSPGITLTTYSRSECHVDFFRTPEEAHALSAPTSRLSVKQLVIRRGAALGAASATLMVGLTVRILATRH

human OAT3 [1] = biological target: T3, human OAT3 (Homo sapiens, UniProt Q8TCC7); test: cell-based
T3 sequence (Q8TCC7 1-542): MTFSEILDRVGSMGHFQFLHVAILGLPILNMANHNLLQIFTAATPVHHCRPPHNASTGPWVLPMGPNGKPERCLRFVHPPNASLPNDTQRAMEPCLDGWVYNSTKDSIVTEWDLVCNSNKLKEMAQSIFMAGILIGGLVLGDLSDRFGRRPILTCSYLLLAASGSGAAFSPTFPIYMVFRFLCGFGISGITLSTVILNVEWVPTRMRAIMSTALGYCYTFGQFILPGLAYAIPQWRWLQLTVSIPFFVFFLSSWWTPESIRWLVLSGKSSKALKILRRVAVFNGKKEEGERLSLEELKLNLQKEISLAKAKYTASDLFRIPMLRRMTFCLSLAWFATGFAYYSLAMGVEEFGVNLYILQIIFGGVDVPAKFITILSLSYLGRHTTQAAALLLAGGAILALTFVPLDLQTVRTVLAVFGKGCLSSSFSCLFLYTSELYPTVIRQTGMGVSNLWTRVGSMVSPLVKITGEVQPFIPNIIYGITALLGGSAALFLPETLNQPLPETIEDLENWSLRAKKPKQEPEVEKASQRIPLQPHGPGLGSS

P-gp = P-gp (Homo sapiens, UniProt P08183); test: biochemical
Sequence of P-gp (P08183 whole entry): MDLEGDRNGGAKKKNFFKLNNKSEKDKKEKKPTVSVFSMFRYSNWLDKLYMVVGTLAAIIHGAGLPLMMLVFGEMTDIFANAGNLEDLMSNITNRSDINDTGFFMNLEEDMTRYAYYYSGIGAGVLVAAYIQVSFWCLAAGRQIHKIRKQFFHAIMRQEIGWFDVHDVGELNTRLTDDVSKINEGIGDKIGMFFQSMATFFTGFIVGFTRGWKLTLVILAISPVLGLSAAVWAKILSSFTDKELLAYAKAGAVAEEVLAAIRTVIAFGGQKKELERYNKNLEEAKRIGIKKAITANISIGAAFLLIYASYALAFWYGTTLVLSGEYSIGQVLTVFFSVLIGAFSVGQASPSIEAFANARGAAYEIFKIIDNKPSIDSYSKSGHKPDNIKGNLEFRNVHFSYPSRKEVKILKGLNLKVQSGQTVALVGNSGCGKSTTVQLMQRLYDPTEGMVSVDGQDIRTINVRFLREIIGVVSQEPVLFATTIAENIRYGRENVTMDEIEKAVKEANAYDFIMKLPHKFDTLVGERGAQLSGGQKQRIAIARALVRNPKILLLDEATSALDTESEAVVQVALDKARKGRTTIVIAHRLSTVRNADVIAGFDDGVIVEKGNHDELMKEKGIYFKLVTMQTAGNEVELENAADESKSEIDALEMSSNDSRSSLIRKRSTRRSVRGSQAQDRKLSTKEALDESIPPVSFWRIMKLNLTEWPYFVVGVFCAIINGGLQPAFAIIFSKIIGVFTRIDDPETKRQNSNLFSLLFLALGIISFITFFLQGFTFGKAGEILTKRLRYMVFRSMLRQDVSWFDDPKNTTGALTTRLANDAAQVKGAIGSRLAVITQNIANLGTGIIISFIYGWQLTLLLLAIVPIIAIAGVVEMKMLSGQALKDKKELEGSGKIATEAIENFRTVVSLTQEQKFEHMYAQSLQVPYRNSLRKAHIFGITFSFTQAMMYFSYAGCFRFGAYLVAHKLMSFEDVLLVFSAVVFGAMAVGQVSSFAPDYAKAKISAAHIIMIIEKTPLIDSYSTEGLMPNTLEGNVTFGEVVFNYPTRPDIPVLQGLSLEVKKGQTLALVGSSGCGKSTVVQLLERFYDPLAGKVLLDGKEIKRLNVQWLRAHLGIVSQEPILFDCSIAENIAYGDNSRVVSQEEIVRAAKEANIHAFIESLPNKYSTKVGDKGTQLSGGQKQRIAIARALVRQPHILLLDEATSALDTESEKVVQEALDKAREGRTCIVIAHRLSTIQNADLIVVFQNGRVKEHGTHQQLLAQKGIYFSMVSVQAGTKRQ

human OCT1 = biological target: T4, human OCT1 (Homo sapiens, UniProt O15245); test: cell-based
T4 sequence (O15245 1-554): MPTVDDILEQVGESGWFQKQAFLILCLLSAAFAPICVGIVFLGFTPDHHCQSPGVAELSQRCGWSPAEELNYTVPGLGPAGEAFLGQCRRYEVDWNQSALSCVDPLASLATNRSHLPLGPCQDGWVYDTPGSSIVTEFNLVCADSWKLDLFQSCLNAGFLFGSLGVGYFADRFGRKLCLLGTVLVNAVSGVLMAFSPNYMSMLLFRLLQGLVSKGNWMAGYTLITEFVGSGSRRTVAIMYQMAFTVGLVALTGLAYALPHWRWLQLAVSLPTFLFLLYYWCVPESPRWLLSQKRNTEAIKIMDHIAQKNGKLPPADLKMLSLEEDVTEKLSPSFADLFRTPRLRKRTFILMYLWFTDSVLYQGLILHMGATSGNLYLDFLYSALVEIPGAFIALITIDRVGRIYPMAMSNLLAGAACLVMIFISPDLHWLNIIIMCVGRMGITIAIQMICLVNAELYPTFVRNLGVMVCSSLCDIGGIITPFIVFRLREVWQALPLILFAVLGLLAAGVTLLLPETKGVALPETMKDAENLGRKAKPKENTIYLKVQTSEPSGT

human MATE1 = biological target: T5, human MATE1 (Homo sapiens, UniProt Q96FL8); test: cell-based
T5 sequence (Q96FL8 1-570): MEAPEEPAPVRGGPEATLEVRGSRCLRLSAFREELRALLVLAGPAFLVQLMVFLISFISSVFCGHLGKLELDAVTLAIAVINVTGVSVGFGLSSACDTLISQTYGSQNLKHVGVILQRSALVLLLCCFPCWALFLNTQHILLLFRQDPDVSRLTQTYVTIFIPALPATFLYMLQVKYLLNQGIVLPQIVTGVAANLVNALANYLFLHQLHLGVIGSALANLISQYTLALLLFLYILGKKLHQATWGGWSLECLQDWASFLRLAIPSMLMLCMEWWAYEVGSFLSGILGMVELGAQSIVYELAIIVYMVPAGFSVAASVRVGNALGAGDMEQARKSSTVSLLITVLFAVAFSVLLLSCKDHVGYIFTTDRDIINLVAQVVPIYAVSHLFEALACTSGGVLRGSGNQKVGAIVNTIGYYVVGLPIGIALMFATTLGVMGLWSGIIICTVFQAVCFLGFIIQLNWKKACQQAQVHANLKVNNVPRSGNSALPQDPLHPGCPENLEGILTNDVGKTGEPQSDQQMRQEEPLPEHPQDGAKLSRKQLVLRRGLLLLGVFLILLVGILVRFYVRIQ

[2] = tested on: transporters at major organ sites; test: Prediction of transporter-mediated inhibition / DDI potential; set-up: species or system human; settings: of 11 transporters; FDA criteria
human OAT3 [3] = biological target: T3, human OAT3; settings: human
[4] = tested on: triglycerides, LDL cholesterol, and total cholesterol, biomarkers of OCT1 activity; test: UCSF EHR analysis: lipid levels in patients with HIV, on vs off drug; format: in vivo, human

Compound | IC50 (BCRP) | IC50 (human OAT1) | IC50 (human MATE2) | IC50 (human OAT3 [1]) | IC50 (P-gp) | IC50 (human OCT1) | IC50 (human MATE1) | No. of transporters at major organ sites inhibited at clinical concentrations [2] | Cu,max/IC50 OAT3 (human OAT3 [3]) | LDL cholesterol, Average On drug ([4]; matched 1:1, n=719 each, off drug 99.5, P 0.0033) | Triglyceride, Average On drug ([4]; matched 1:1, n=782 each, off drug 162, P 7.8E-12) | Total cholesterol, Average On drug ([4]; matched 1:1, n=803 each, off drug 168, P 3.1E-13) | LDL cholesterol, Median On drug ([4]; matched 1:1, off drug 96) | Triglyceride, Median On drug ([4]; matched 1:1, off drug 124) | Total cholesterol, Median On drug ([4]; matched 1:1, off drug 165)
CCS(=O)(=O)N1CC(CC#N)(n2cc(-c3ncnc4[nH]ccc34)cn2)C1 [Baricitinib] | > 50 µM | > 50 µM | 6.7 ± 5.6 µM | 12.7 ± 5 µM | > 50 µM | 22.9 ± 18 µM | 36 ± 24 µM |  |  |  |  |  |  |  | 
CN(C)C(=O)COC(=O)Cc1ccc(OC(=O)c2ccc(NC(=N)N)cc2)cc1 [Camostat] | > 100 µM | > 100 µM | 2 ± 1.3 µM | > 100 µM | 35 µM | 20.3 ± 21.3 µM |  | 1 |  |  |  |  |  |  | 
CCN(CC)CCCC(C)Nc1ccnc2cc(Cl)ccc12 (stereo not drawn) [Chloroquine] |  | > 100 µM | 0.7 ± 0.2 µM | > 100 µM |  | 10.7 ± 10.4 µM | 0.8 ± 0.8 µM | 4 |  |  |  |  |  |  | 
COc1cc2c(c(OC)c1OC)-c1ccc(OC)c(=O)cc1[C@@H](NC(C)=O)CC2 [Colchicine] | > 100 µM |  | > 100 µM | > 100 µM | 42 µM |  | > 100 µM |  |  |  |  |  |  |  | 
NC(=O)c1nc(F)c[nH]c1=O [Favipiravir] | > 100 µM | 52 µM | > 100 µM | 84.2 ± 19.5 µM | 55 µM | > 100 µM | > 100 µM | 3 | 3.21 |  |  |  |  |  | 
CCCCCCCCc1ccc(CCC(N)(CO)CO)cc1 [Fingolimod] | > 100 µM | 64 µM | > 100 µM | > 100 µM | 89 µM | > 100 µM | > 100 µM | 0 |  |  |  |  |  |  | 
CCN(CCO)CCCC(C)Nc1ccnc2cc(Cl)ccc12 (stereo not drawn) [Hydroxychloroquine] | > 100 µM | > 100 µM | 0.8 ± 0.1 µM | > 100 µM | 51.8 ± 20.6 µM | 20 ± 15.9 µM | 1.9 ± 0.3 µM | 4 |  |  |  |  |  |  | 
Cc1cccc(C)c1OCC(=O)N[C@@H](Cc1ccccc1)[C@@H](O)C[C@H](Cc1ccccc1)NC(=O)[C@H](C(C)C)N1CCCNC1=O [Lopinavir] |  | > 100 µM | 25.1 ± 9.6 µM | > 100 µM |  | > 100 µM | 22.5 ± 4 µM | 5 |  |  |  |  |  |  | 
CCOC(=O)C1=C[C@@H](OC(CC)CC)[C@H](NC(C)=O)[C@@H](N)C1 [Oseltamivir] | > 100 µM | 90 µM | > 100 µM | > 100 µM | 44 µM | > 100 µM | > 100 µM | 1 |  |  |  |  |  |  | 
COc1cc2nc(N3CCN(C(=O)c4ccco4)CC3)nc(N)c2cc1OC [Prazosin] | > 100 µM | > 100 µM | 2.4 ± 0.9 µM |  |  | 1.8 ± 2 µM |  |  |  |  |  |  |  |  | 
NC(=O)c1ncn([C@@H]2O[C@H](CO)[C@@H](O)[C@H]2O)n1 [Ribavirin] | > 100 µM | 99 µM | > 100 µM | > 100 µM | 47 µM | > 100 µM | > 100 µM | 2 |  |  |  |  |  |  | 
CC(C)c1nc(CN(C)C(=O)N[C@H](C(=O)N[C@@H](Cc2ccccc2)C[C@H](O)[C@H](Cc2ccccc2)NC(=O)OCc2cncs2)C(C)C)cs1 [Ritonavir] |  |  |  |  |  |  |  |  |  | 106/99.5 mg/dL | 252/162 mg/dL | 190/168 mg/dL | 101/96 mg/dL | 156/124 mg/dL | 182/165 mg/dL
O=C1CCC(N2C(=O)c3ccccc3C2=O)C(=O)N1 (stereo not drawn) [Thalidomide] | > 100 µM | > 100 µM | > 100 µM | 54.6 ± 2.4 µM | 65 µM | > 100 µM | > 100 µM | 1 | 0.08 |  |  |  |  |  | 
C[C@@H]1CCN(C(=O)CC#N)C[C@@H]1N(C)c1ncnc2[nH]ccc12 [Tofacitinib] | > 100 µM | 89 µM | 68.5 ± 6.2 µM | 51.6 ± 7 µM | > 100 µM | 41.4 ± 13 µM | 1 ± 0.5 µM | 1 |  |  |  |  |  |  | 
